These results are taken from ChEMBL document CHEMBL4339254, “Lamellarin Sulfates from the Pacific Tunicate Didemnum ternerratum” (J Nat Prod, 2019).

By IC50 is commonly meant the concentration that gives 50% inhibition.

For one test, the system named is HCT-116. Nature of the test: Cytotoxicity in human HCT116 cells assessed as reduction in cell viability incubated for 48 hrs by MTS assay. In kind it is functional, cell-based. To be noted: Homo sapiens, HCT-116, 48 h; read-out: IC50.
As for `COc1cc(-c2c3n(c4c(=O)oc5cc(O)c(OC)cc5c24)CCc2c-3cc(OC)c(OC)c2O)ccc1O`, the IC50 worked out at 4.3 µM. For the compound `COc1cc(-c2c3c4cc(OC)c(O)cc4oc(=O)c3n3ccc4cc(OS(=O)(=O)O)c(OC)cc4c23)ccc1O`, the IC50 was determined as 9.7 µM.

The same test, now with this note: hct-116.
In the case of `COc1cc(-c2c3c4cc(OC)c(OS(=O)(=O)O)cc4oc(=O)c3n3ccc4cc(OC)c(OC)cc4c23)ccc1O`, the IC50 result is given as “Not Active”. On the same count and under the same terms, the same measure for `COc1ccc(-c2c3n(c4c(=O)oc5cc(OS(=O)(=O)O)c(OC)cc5c24)CCc2c-3cc(OC)c(OC)c2O)cc1O`: “Not Active”; for `COc1cc(-c2c3n(c4c(=O)oc5cc(OS(=O)(=O)O)c(OC)cc5c24)CCc2c-3cc(OC)c(OC)c2O)ccc1O`: “Not Active”; for `COc1ccc(-c2c3n(c4c(=O)oc5cc(OS(=O)(=O)O)c(O)cc5c24)CCc2cc(OC)c(O)cc2-3)cc1O`: “Not Active”. The same measure, in the same setting: the same measure for `COc1cc(-c2c3n(c4c(=O)oc5cc(OS(=O)(=O)O)c(OC)cc5c24)CCc2cc(OC)c(OC)cc2-3)ccc1O`: “Not Active”.
